Data as given in patent US10766903B2 (ALMAC DISCOVERY LIMITED, priority 2016, dated 2020).
Where a name gives a salt, the structure may show the parent alone.

target: USP7 (Homo sapiens (Human), UniProt Q93009); experiment: USP7 fluorescence polarisation (FP) biochemical assay, ubiquitin-Lys-TAMRA substrate; details: Table 4, biochemical assay; average of at least duplicate experiments; read-out: USP7 IC50
Summary of the method: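 Full-length His6-USP7 (2.5 nM) incubated ± inhibitor (8-point dilutions, 200 to 0.1 μM before addition) in 50 mM HEPES pH 7.2, 150 mM NaCl, 0.5 mM EDTA, 5 mM DTT, 0.05% BSA, 0.05% CHAPS. Ubiquitin-Lys-TAMRA cleavage followed by FP (ex 530/em 575 nm) every 15 min for 1.5 h; normalised to no-compound control.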

Chain of USP7 (Q93009 whole entry): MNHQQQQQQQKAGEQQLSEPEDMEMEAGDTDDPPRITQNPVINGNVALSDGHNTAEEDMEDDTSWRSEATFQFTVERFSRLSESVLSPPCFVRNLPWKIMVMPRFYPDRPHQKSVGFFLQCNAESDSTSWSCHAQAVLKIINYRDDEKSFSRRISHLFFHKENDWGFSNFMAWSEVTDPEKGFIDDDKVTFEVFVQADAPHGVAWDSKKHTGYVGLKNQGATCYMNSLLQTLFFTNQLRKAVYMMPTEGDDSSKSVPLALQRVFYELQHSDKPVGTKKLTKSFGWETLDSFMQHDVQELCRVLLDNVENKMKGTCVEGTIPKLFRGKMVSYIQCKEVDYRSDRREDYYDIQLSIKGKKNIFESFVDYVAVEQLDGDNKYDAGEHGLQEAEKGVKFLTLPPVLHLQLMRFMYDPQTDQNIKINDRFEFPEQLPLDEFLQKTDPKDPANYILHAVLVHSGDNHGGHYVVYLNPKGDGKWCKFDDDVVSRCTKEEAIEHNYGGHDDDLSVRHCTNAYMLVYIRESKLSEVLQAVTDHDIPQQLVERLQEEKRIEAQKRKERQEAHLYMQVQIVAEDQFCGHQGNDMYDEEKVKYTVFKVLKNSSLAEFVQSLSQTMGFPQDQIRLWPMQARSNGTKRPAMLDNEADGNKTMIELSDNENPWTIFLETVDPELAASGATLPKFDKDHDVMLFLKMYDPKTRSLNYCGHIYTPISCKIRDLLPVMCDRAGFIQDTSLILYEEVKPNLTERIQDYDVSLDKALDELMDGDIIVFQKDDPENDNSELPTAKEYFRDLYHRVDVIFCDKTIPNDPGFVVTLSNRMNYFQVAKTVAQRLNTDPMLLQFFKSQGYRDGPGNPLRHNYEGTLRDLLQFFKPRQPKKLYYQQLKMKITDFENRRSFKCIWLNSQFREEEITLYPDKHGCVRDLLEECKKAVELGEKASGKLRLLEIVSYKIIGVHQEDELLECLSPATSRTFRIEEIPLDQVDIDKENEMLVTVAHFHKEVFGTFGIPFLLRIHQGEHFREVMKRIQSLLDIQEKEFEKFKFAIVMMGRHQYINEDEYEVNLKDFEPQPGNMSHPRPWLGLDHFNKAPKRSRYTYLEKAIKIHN

Compound	IC50 [µM]
CC1(C(=O)N2CCC(O)(Cn3cnc4c(cc(C#N)n4-c4ccccc4)c3=O)CC2)CC1 [Example 234, 3-((4-Hydroxy-1-(1-methylcyclopropanecarbonyl)piperidin-4-yl)methyl)-4-oxo-7-phenyl-4,7-dihydro-3H-pyrrolo[2,3-d]pyrimidine-6-carbonitrile]	< 0.25
CC1(C(=O)N2CCC(O)(Cn3cnc4[nH]c(Cl)cc4c3=O)CC2)CC1 [Example 199, 6-Chloro-3-((4-hydroxy-1-(1-methylcyclopropanecarbonyl)piperidin-4-yl)methyl)-3H-pyrrolo[2,3d]pyrimidin-4(7H)-one]	1 to 200
Cn1nc2c(=O)n(CC3(O)CCN(C(=O)CC(C4CC4)C4CC4)CC3)cnc2c1-c1ccc(CN)cc1 [Example 127, 3-(4-(Aminomethyl)phenyl)-6-((1-(3,3-dicyclopropylpropanoyl)-4-hydroxypiperidin-4-yl)methyl)-2-methyl-2H-pyrazolo[4,3-d]pyrimidin-7(6H)-one]	< 0.25
C[C@H](CC(=O)N1CCC(O)(Cn2cnc(-c3cncnc3)cc2=O)CC1)c1ccccc1 [Example 102]	1 to 200
C[C@H](CC(=O)N1CCC(O)(Cn2cnc(NCCN3CCC[C@@H]3C)cc2=O)CC1)c1ccccc1 [Example 69, 3-((4-Hydroxy-1-((R)-3-phenylbutanoyl)piperidin-4-yl)methyl)-6-((2-((S)-2-methylpyrrolidin-1-yl)ethyl)amino)pyrimidin-4(3H)-one, Formic Acid]	< 0.25
C[C@H](N)c1ccc(-c2c3ncn(CC4(O)CCN(C(=O)C[C@H](c5ccccc5)C(F)(F)F)CC4)c(=O)c3nn2C)cc1 [Example 76, 3-(4-((S)-1-Aminoethyl)phenyl)-6-((4-hydroxy-1-((R)-4,4,4-trifluoro-3-phenylbutanoyl)piperidin-4-yl)methyl)-2-methyl-2H-pyrazolo[4,3-d]pyrimidin-7(6H)-one]	< 0.25
O=C(c1cnc(C2CC2)o1)N1CCC(O)(Cn2cnc3c(cc(Br)n3-c3ccccc3)c2=O)CC1 [Example 222, 6-Bromo-3-((1-(2-cyclopropyloxazole-5-carbonyl)-4-hydroxypiperidin-4-yl)methyl)-7-phenyl-3H-pyrrolo[2,3-d]pyrimidin-4(7H)-one]	< 0.25
C[C@H](CC(=O)N1CCC(O)(Cn2cnc(N3CCC[C@@H]3CO)cc2=O)CC1)c1ccccc1 [Example 140, 3-((4-hydroxy-1-((R)-3-phenylbutanoyl)piperidin-4-yl)methyl)-6-((R)-2-(hydroxymethyl)pyrrolidin-1-yl)pyrimidin-4(3H)-one]	1 to 200
CC1(C(=O)N2CCC(O)(Cn3cnc4c(cc(Br)n4-c4ccccc4)c3=O)CC2)CC1 [Example 223, 6-Bromo-3-((4-hydroxy-1-(1-methylcyclopropanecarbonyl)piperidin-4-yl)methyl)-7-phenyl-3H-pyrrolo[2,3-d]pyrimidin-4(7H)-one]	< 0.25
C[C@H](CC(=O)N1CCC(O)(Cn2cnc(N3CCC(F)(F)CC3)cc2=O)CC1)c1ccccc1 [Example 160, (R)-6-(4,4-difluoropiperidin-1-yl)-3-((4-hydroxy-1-(3-phenylbutanoyl)piperidin-4-yl)methyl)pyrimidin-4(3H)-one]	1 to 200
O=C(c1cnc(C2CC2)o1)N1CCC(O)(Cn2cnc3c(cc(Cl)n3-c3ccc(Cl)cc3)c2=O)CC1 [Example 228, 6-Chloro-7-(4-chlorophenyl)-3-((1-(2-cyclopropyloxazole-5-carbonyl)-4-hydroxypiperidin-4-yl)methyl)-3H-pyrrolo[2,3-d]pyrimidin-4(7H)-one]	< 0.25
C[C@H](CC(=O)N1CCC(O)(Cn2cnc(NCCO)cc2=O)CC1)c1ccccc1 [Example 103, (R)-3-((4-Hydroxy-1-(3-phenylbutanoyl)piperidin-4-yl)methyl)-6-((2-hydroxyethyl)amino)pyrimidin-4(3H)-one]	1 to 200
CC(=O)NCCNc1cc(=O)n(CC2(O)CCN(C(=O)C[C@@H](C)c3ccccc3)CC2)cn1 [Example 143, (R)-N-(2-((1-((4-hydroxy-1-(3-phenylbutanoyl)piperidin-4-yl)methyl)-6-oxo-1,6-dihydropyrimidin-4-yl)amino)ethyl)acetamide]	1 to 200
C[C@H](CC(=O)N1CCC(O)(Cn2cnc(N3CC4(CCC4(F)F)C3)cc2=O)CC1)c1ccccc1 [Example 173, (R)-6-(5,5-difluoro-2-azaspiro[3.3]heptan-2-yl)-3-((4-hydroxy-1-(3-phenylbutanoyl)piperidin-4-yl)methyl)pyrimidin-4(3H)-one]	1 to 200
Cn1nccc1-c1cc(-n2c(Cl)cc3c(=O)n(CC4(O)CCN(C(=O)C5(C)CC5)CC4)cnc32)ccc1F [Example 231, 6-Chloro-7-(4-fluoro-3-(1-methyl-1H-pyrazol-5-yl)phenyl)-3-((4-hydroxy-1-(1-methylcyclopropanecarbonyl)piperidin-4-yl)methyl)-3H-pyrrolo[2,3-d]pyrimidin-4(7H)-one]	0.25 to 0.999
C[C@H](CC(=O)N1CCC(O)(Cn2cnc(Cl)cc2=O)CC1)c1ccccc1 [Example 1, (R)-6-Chloro-3-((4-hydroxy-1-(3-phenylbutanoyl)piperidin-4-yl)methyl)pyrimidin-4(3H)-one]	1 to 200
C[C@H](CC(=O)N1CCC(O)(C(O)c2cnc3c(-c4ccccc4)cccn3c2=O)CC1)c1ccccc1 (stereo partly drawn) [Example 105, 3-(Hydroxy(4-hydroxy-1-((R)-3-phenylbutanoyl)piperidin-4-yl)methyl)-9-phenyl-4H-pyrido[1,2-a]pyrimidin-4-one]	1 to 200
Cn1cc(-c2cc(-n3c(Cl)cc4c(=O)n(CC5(O)CCN(C(=O)c6cnc(C7CC7)o6)CC5)cnc43)ccc2F)cn1 [Example 232, 6-Chloro-3-((1-(2-cyclopropyloxazole-5-carbonyl)-4-hydroxypiperidin-4-yl)methyl)-7-(4-fluoro-3-(1-methyl-1H-pyrazol-4-yl)phenyl)-3H-pyrrolo[2,3-d]pyrimidin-4(7H)-one]	< 0.25
C[C@H](CC(=O)N1CCC(O)(Cn2cnc(N3CCN(Cc4ccccn4)CC3)cc2=O)CC1)c1ccccc1 [Example 159, (R)-3-((4-hydroxy-1-(3-phenylbutanoyl)piperidin-4-yl)methyl)-6-(4-(pyridin-2-ylmethyl)piperazin-1-yl)pyrimidin-4(3H)-one]	1 to 200
CC(C)c1cc(=O)n(CC2(O)CCN(C(=O)C[C@@H](C)c3ccccc3)CC2)cn1 [Example 81, (R)-3-((4-Hydroxy-1-(3-phenylbutanoyl)piperidin-4-yl)methyl)-6-isopropylpyrimidin-4(3H)-one]	1 to 200
C[C@H](CC(=O)N1CCC(O)(Cn2cnc(-c3ccncc3)cc2=O)CC1)c1ccccc1 [Example 2, (R)-3-((4-Hydroxy-1-(3-phenylbutanoyl)piperidin-4-yl)methyl)-6-(pyridin-4-yl)pyrimidin-4(3H)-one]	1 to 200
C[C@H](CC(=O)N1CCC(O)(Cn2cnc(N3CCN(C)CC3)cc2=O)CC1)c1ccccc1 [Example 8, (R)-3-((4-Hydroxy-1-(3-phenylbutanoyl)piperidin-4-yl)methyl)-6-(4-methylpiperazin-1-yl)pyrimidin-4(3H)-one]	1 to 200
CS(=O)(=O)c1nc2ncn(CC3(O)CCN(C(=O)CCc4ccccc4)CC3)c(=O)c2s1 [Example 92, 6-((4-Hydroxy-1-(3-phenylpropanol)piperidin-4-yl)methyl)-2-(methylsulfonyl)thiazolo[4,5-d]pyrimidin-7(6H)-one]	1 to 200
C[C@H](CC(=O)N1CCC(O)(Cn2cnc(NC[C@H](C)N3CCCC3)cc2=O)CC1)c1ccccc1 [Example 59, 3-((4-Hydroxy-1-((R)-3-phenylbutanoyl)piperidin-4-yl)methyl)-6-(((S)-2-(pyrrolidin-1-yl)propyl)amino)pyrimidin-4(3H)-one, Formic Acid]	< 0.25
C[C@H](CC(=O)N1CCC(O)(Cc2cnc3ccccn3c2=O)CC1)c1ccccc1 [Example 18, (R)-3-((4-Hydroxy-1-(3-phenylbutanoyl)piperidin-4-yl)methyl)-4H-pyrido[1,2-a]pyrimidin-4-one]	1 to 200

same assay, conditions: USP7 IC50, Table 3, effect of the R2 substituent

Compound	IC50 [µM]
C[C@H](CC(=O)N1CCC(O)(Cn2cnc3c(C(F)(F)F)n(C)nc3c2=O)CC1)c1ccccc1 [Example 23, (R)-6-((4-Hydroxy-1-(3-phenylbutanoyl)piperidin-4-yl)methyl)-2-methyl-3-(trifluoromethyl)-2H-pyrazolo[4,3-d]pyrimidin-7(6H)-one]	0.6

same assay, conditions: USP7 IC50, Table 4, biochemical assay; average of at least duplicate experiments

Compound	IC50 [µM]
C[C@H](CC(=O)N1CCC(O)(Cn2cnc(N3CCC4(CCNC4)CC3)cc2=O)CC1)c1ccccc1 [Example 49, (R)-3-((4-Hydroxy-1-(3-phenylbutanoyl)piperidin-4-yl)methyl)-6-(2,8-diazaspiro[4.5]decan-8-yl)pyrimidin-4(3H)-one hydrochloride]	0.25 to 0.999
C[C@H](CC(=O)N1CCC(O)(Cn2cnc(NC3CCCC3)cc2=O)CC1)c1ccccc1 [Example 167, (R)-6-(cyclopentylamino)-3-((4-hydroxy-1-(3-phenylbutanoyl)piperidin-4-yl)methyl)pyrimidin-4(3H)-one]	0.25 to 0.999
C[C@H](CC(=O)N1CCC(O)(Cn2cnc(N3CC4(CCOC4)C3)cc2=O)CC1)c1ccccc1 [Example 176, (R)-3-((4-hydroxy-1-(3-phenylbutanoyl)piperidin-4-yl)methyl)-6-(6-oxa-2-azaspiro[3.4]octan-2-yl)pyrimidin-4(3H)-one]	0.25 to 0.999
C[C@H](CC(=O)N1CCC(O)(Cn2cnc(N3C[C@@H]4C[C@H]3CN(C)C4)cc2=O)CC1)c1ccccc1 (single isomer, unassigned) [Example 180]	< 0.25
C[C@H](CC(=O)N1CCC(O)(Cn2cnc(-c3ccn[nH]3)cc2=O)CC1)c1ccccc1 [Example 3, (R)-3-((4-Hydroxy-1-(3-phenylbutanoyl)piperidin-4-yl)methyl)-6-(1H-pyrazol-5-yl)pyrimidin-4(3H)-one]	0.25 to 0.999
C[C@H](CC(=O)N1CCC(O)(Cn2cnc3c(C(F)(F)F)n(C)nc3c2=O)CC1)c1ccccc1 [Example 23, (R)-6-((4-Hydroxy-1-(3-phenylbutanoyl)piperidin-4-yl)methyl)-2-methyl-3-(trifluoromethyl)-2H-pyrazolo[4,3-d]pyrimidin-7(6H)-one]	0.25 to 0.999
